Results from patent publication US11813340B2, “PSMA targeted radiohalogenated urea-polyaminocarboxylates for cancer radiotherapy” (The Johns Hopkins University, priority 2018, dated 2023).
“Also recorded” adds a separate entry of the source.

Assays:
[1] = test system: PSMA + PC3-PIP and PSMA-PC3-flu flank xenografts; test: Biodistribution of At-211 labeled PSMA inhibitors with and without cold blocking agent (Tables 6-8); assay type: in vivo, athymic mice
Description: Organs were harvested 1, 4, and 24 h post-injection (n=5 per time point).

[2] = test system: PSMA+ PC3-PIP; test: Efficacy in subcutaneous (SC) PSMA+ PC3-PIP model; assay type: in vivo, NOD/SCID/IL-2rγ−/− (NSG) mice; settings: single intravenous injection of different doses; FIG. 3A
Description: (§1) Two murine models of human PC were generated, a subcutaneous (SC) model of PSMA+PC3-PIP and PSMA-PC3-flu cells and a metastatic model of PSMA+ PC3ML/PSMA/fLuc in NOD/SCID/IL-2rγ−/− (NSG) mice. Single intravenous injection of different doses (FIG. 3) was given to each animal and the tumor progression was monitored by measuring the SC tumor volume or by performing bioluminescence imaging for the metastatic model.

[3] = test system: CD-1 mice; test: Long-term toxicity in healthy immunocompetent mice; assay type: in vivo; settings: 1.48 MBq, 0.74 MBq, 0.244 MBq; up to 4 months after treatment
[4] = test system: PSMA+PC3-PIP and PSMA-PC3-flu flank xenografts; test: Biodistribution of [125I/211At]2 and 3 with and without co-injection of DCIBzL (Example 6); assay type: in vivo, athymic mice
Description: Final compounds were purified by HPLC.

[5] = test system: PSMA + PC3-PIP and PSMA-PC3-flu flank xenografts; settings: previously shown, Mease et al., 2018; cited from earlier work
[6] = test system: PSMA− PC3-flu; test: Efficacy in subcutaneous (SC) PSMA− PC3-flu model; assay type: in vivo, NOD/SCID/IL-2rγ−/− (NSG) mice; settings: single intravenous injection of different doses; FIG. 3A
Description: as §1

[7] = 21-24 Hour (footnote b), + 0.25 nmole YC-I-27
[8] = 21-24 Hour (footnote b), no blocker

SMILES: O=C([O-])CN1CCN(CC(=O)[O-])CCN(CC(=O)NCCCCC(=O)N(CCCC[C@H](NC(=O)N[C@@H](CCC(=O)O)C(=O)O)C(=O)O)Cc2ccc([211At])cc2)CCN(CC(=O)[O-])CC1.[Lu+3] [[^211At]VK-02-90-Lu]
- Biodistribution, Blood ([1]; 1 Hour, 0.5 nmole YC-I-27): 0.5 ± 0.1 % injected dose/g
- Biodistribution, Flu tumor ([1]; 1 Hour, 0.5 nmole YC-I-27): 0.4 ± 0.1 % injected dose/g
- Biodistribution, PIP tumor ([1]; 1 Hour, 0.5 nmole YC-I-27): 25.4 ± 4.4 % injected dose/g
- Biodistribution, Spleen ([1]; 1 Hour, 0.5 nmole YC-I-27): 0.3 ± 0.4 % injected dose/g
- Biodistribution, Stomach ([1]; 1 Hour, 0.5 nmole YC-I-27): 0.4 ± 0.2 % injected dose/g
- Biodistribution, kidney ([1]; 1 Hour, 0.5 nmole YC-I-27): 2.2 ± 0.6 % injected dose/g
- Biodistribution, lacrimal gland ([1]; 1 Hour, 0.5 nmole YC-I-27): 0 % injected dose/g
- Biodistribution, salivary gland ([1]; 1 Hour, 0.5 nmole YC-I-27): 0.4 ± 0.15 % injected dose/g
- Biodistribution, Blood ([1]; 1 Hour, + 0.25 nmole YC-I-27): 0.6 ± 0.04 % injected dose/g
- Biodistribution, Flu tumor ([1]; 1 Hour, + 0.25 nmole YC-I-27): 0.4 ± 0.1 % injected dose/g
- Biodistribution, PIP tumor ([1]; 1 Hour, + 0.25 nmole YC-I-27): 34.2 ± 7.8 % injected dose/g
- Biodistribution, Spleen ([1]; 1 Hour, + 0.25 nmole YC-I-27): 0.5 ± 0.4 % injected dose/g
- Biodistribution, Stomach ([1]; 1 Hour, + 0.25 nmole YC-I-27): 0.4 ± 0.2 % injected dose/g
- Biodistribution, kidney ([1]; 1 Hour, + 0.25 nmole YC-I-27): 5.0 ± 1.6 % injected dose/g
- Biodistribution, lacrimal gland ([1]; 1 Hour, + 0.25 nmole YC-I-27): 0.1 ± 0.4 % injected dose/g
- Biodistribution, salivary gland ([1]; 1 Hour, + 0.25 nmole YC-I-27): 0.4 ± 0.15 % injected dose/g
- Biodistribution, Blood ([1]; 1 Hour, no blocker): 0.8 ± 0.2 % injected dose/g
- Biodistribution, Flu tumor ([1]; 1 Hour, no blocker): 0.4 ± 0.2 % injected dose/g
- Biodistribution, PIP tumor ([1]; 1 Hour, no blocker): 30.6 ± 4.8 % injected dose/g
- Biodistribution, Spleen ([1]; 1 Hour, no blocker): 2.5 ± 0.9 % injected dose/g
- Biodistribution, Stomach ([1]; 1 Hour, no blocker): 0.4 ± 0.1 % injected dose/g
- Biodistribution, kidney ([1]; 1 Hour, no blocker): 90 ± 43 % injected dose/g
- Biodistribution, lacrimal gland ([1]; 1 Hour, no blocker): 0.8 ± 0.9 % injected dose/g
- Biodistribution, salivary gland ([1]; 1 Hour, no blocker): 0.5 ± 0.2 % injected dose/g
- Biodistribution, Blood ([1]; 4 H, 0.5 nmole YC-I-27): 0.2 ± 0.1 % injected dose/g
- Biodistribution, Flu tumor ([1]; 4 H, 0.5 nmole YC-I-27): 0.1 ± 0.04 % injected dose/g
- Biodistribution, PIP tumor ([1]; 4 H, 0.5 nmole YC-I-27): 18.7 ± 5.4 % injected dose/g
- Biodistribution, Spleen ([1]; 4 H, 0.5 nmole YC-I-27): 0.8 ± 0.5 % injected dose/g
- Biodistribution, Stomach ([1]; 4 H, 0.5 nmole YC-I-27): 0.4 ± 0.05 % injected dose/g
- Biodistribution, kidney ([1]; 4 H, 0.5 nmole YC-I-27): 0.7 ± 0.1 % injected dose/g
- Biodistribution, lacrimal gland ([1]; 4 H, 0.5 nmole YC-I-27): 0 % injected dose/g
- Biodistribution, salivary gland ([1]; 4 H, 0.5 nmole YC-I-27): 0.3 ± 0.2 % injected dose/g
- Biodistribution, Blood ([1]; 4 H, + 0.25 nmole YC-I-27): 0.2 ± 0.1 % injected dose/g
- Biodistribution, Flu tumor ([1]; 4 H, + 0.25 nmole YC-I-27): 0.1 ± 0.2 % injected dose/g
- Biodistribution, PIP tumor ([1]; 4 H, + 0.25 nmole YC-I-27): 27.8 ± 8.7 % injected dose/g
- Biodistribution, Spleen ([1]; 4 H, + 0.25 nmole YC-I-27): 0.1 ± 0.5 % injected dose/g
- Biodistribution, Stomach ([1]; 4 H, + 0.25 nmole YC-I-27): 0.5 ± 0.3 % injected dose/g
- Biodistribution, kidney ([1]; 4 H, + 0.25 nmole YC-I-27): 1.4 ± 0.3 % injected dose/g
- Biodistribution, lacrimal gland ([1]; 4 H, + 0.25 nmole YC-I-27): 0.4 ± 0.4 % injected dose/g
- Biodistribution, salivary gland ([1]; 4 H, + 0.25 nmole YC-I-27): 0.2 ± 0.1 % injected dose/g
- Biodistribution, Blood ([1]; 4 H, no blocker): 0.1 ± 0.03 % injected dose/g
- Biodistribution, Flu tumor ([1]; 4 H, no blocker): 0.1 ± 0.1 % injected dose/g
- Biodistribution, Spleen ([1]; 4 H, no blocker): 0 % injected dose/g
- Biodistribution, Stomach ([1]; 4 H, no blocker): 0.3 ± 0.2 % injected dose/g
- Biodistribution, kidney ([1]; 4 H, no blocker): 2.1 ± 0.6 % injected dose/g
- Biodistribution, lacrimal gland ([1]; 4 H, no blocker): 0.3 ± 1.1 % injected dose/g
- Biodistribution, salivary gland ([1]; 4 H, no blocker): 0.2 ± 0.1 % injected dose/g
- Biodistribution, Blood [1, 7]: 0.3 ± 1.0 % injected dose/g
- Biodistribution, Flu tumor [1, 7]: 0.04 ± 0.2 % injected dose/g
- Biodistribution, PIP tumor [1, 7]: 15.3 ± 8.0 % injected dose/g
- Biodistribution, Spleen [1, 7]: 0 % injected dose/g
- Biodistribution, Stomach [1, 7]: 0.3 ± 0.4 % injected dose/g
- Biodistribution, kidney [1, 7]: 0.3 ± 0.4 % injected dose/g
- Biodistribution, lacrimal gland [1, 7]: 0 % injected dose/g
- Biodistribution, salivary gland [1, 7]: 0 % injected dose/g
- Biodistribution, Blood [1, 8]: 0 % injected dose/g
- Biodistribution, Flu tumor [1, 8]: 0 % injected dose/g
- Biodistribution, PIP tumor [1, 8]: 9.5 ± 1.0 % injected dose/g
- Biodistribution, Spleen [1, 8]: 0 % injected dose/g
- Biodistribution, Stomach [1, 8]: 0 % injected dose/g
- Biodistribution, kidney [1, 8]: 0.02 ± 0.2 % injected dose/g
- Biodistribution, lacrimal gland [1, 8]: 0 % injected dose/g
- Biodistribution, salivary gland [1, 8]: 0 % injected dose/g
- Biodistribution, Blood ([1]; 21-24 Hour, 0.5 nmole YC-I-27): 0.03 ± 0.3 % injected dose/g
- Biodistribution, Flu tumor ([1]; 21-24 Hour, 0.5 nmole YC-I-27): 0.2 ± 0.3 % injected dose/g
- Biodistribution, PIP tumor ([1]; 21-24 Hour, 0.5 nmole YC-I-27): 17.5 ± 7.9 % injected dose/g
- Biodistribution, Spleen ([1]; 21-24 Hour, 0.5 nmole YC-I-27): 2.5 ± 4.3 % injected dose/g
- Biodistribution, Stomach ([1]; 21-24 Hour, 0.5 nmole YC-I-27): 0.4 ± 0.7 % injected dose/g
- Biodistribution, kidney ([1]; 21-24 Hour, 0.5 nmole YC-I-27): 0.4 ± 0.5 % injected dose/g
- Biodistribution, lacrimal gland ([1]; 21-24 Hour, 0.5 nmole YC-I-27): 0 % injected dose/g
- Biodistribution, salivary gland ([1]; 21-24 Hour, 0.5 nmole YC-I-27): 0 % injected dose/g
- kidney and stomach uptake ([1]; compared to other At-211 labeled PSMA inhibitors): lower kidney and stomach uptake
- response in PSMA+ PC3-PIP SC model (SC tumor volume) [2]: dose-dependent response; also recorded: dose-dependent efficacy
- treatment-related toxicity (overall health status and urinalysis) [3]: No CD-1 animals showed treatment-related toxicity
- Stomach uptake ([4]; @ 1 h): 0.4±0.2 % ID/g
- retention, K ([4]; @1 h, co-injection of DCIBzL): 2.2±0.6 % ID/g
- retention, LG ([4]; @1 h, co-injection of DCIBzL): below detection
- retention, SG ([4]; @1 h, co-injection of DCIBzL): 0.4±0.15 % ID/g
- Stomach uptake ([4]; @ 4 h): 0.4±0.05 % ID/g
- Stomach uptake ([4]; @ 24 h): 0.4±0.7 % ID/g
- ^211At uptake in PSMA+ PC3-PIP xenografts ([4]; combined with DCIBzL): 25.4±4.4 % ID/g
- deastatination in vivo ([4]; mouse, in vivo, listed as [^211At]3): negligible deastatination; also recorded: no evidence of deastatination in vivo
- renal clearance [5]: rapid renal clearance
- retention in PSMA+tumors [5]: persistent retention
- effect on PSMA− PC3-flu SC model [6]: no effect
